Earlier results on two compounds are cited in patent US10201577B2, “Compositions and methods for enhancing working and long-term memory support using new combination of ginkgo biloba and panax ginseng and associated components” (KEYVIEW LABS, INC., priority 2017, dated 2019).

For data set [1] the following is noted: in vivo, po.
In data set [2] the target is T1, choline acetyltransferase (Homo sapiens, UniProt P28329).
T1 sequence (P28329 1-748): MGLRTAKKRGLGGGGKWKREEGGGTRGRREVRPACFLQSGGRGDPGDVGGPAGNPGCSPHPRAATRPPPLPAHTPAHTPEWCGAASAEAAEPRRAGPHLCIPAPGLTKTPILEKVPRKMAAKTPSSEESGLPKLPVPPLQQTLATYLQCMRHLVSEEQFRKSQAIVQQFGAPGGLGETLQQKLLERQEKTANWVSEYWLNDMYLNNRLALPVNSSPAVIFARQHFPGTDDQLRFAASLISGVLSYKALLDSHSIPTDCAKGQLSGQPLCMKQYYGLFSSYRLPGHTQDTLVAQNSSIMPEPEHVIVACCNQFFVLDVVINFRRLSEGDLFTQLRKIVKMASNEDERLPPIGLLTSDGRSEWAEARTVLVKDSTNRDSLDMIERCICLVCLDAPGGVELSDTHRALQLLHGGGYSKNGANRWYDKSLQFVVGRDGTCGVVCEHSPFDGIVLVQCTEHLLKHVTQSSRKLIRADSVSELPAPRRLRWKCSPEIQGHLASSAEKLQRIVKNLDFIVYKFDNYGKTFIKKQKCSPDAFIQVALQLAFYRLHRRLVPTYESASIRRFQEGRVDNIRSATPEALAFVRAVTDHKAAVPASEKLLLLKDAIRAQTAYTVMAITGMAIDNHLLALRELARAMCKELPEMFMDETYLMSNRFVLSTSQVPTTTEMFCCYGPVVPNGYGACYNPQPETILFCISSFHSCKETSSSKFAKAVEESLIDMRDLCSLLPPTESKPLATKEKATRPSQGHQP
The following applies: isolated Rb1.

In data set [3] the test system is long term potentiation (LTP). The conditions noted are these: in vivo.
The subject of data set [4] is acetylcholine release. The conditions noted are these: isolated Rb1.

For the compound `CC1C(=O)OC2C(O)C34C5CC(C(C)(C)C)C36C(OC(=O)C6O)OC4(C(=O)O5)C12O` (centres unmarked) [Ginkgolide B], in data set [1], the elimination half-life is 4.31 ± 0.49 h and the “time of peak plasma level” value is “around 2.25±0.45 hours”.

Turning to `CC(C)=CCC[C@](C)(O[C@@H]1O[C@H](CO[C@@H]2O[C@H](CO)[C@@H](O)[C@H](O)[C@H]2O)[C@@H](O)[C@H](O)[C@H]1O)[C@H]1CC[C@]2(C)[C@@H]1[C@H](O)C[C@@H]1[C@@]3(C)CC[C@H](O[C@@H]4O[C@H](CO)[C@@H](O)[C@H](O)[C@H]4O[C@@H]4O[C@H](CO)[C@@H](O)[C@H](O)[C@H]4O)C(C)(C)[C@@H]3CC[C@]12C` [Rb1], the choline acetyltransferase activity entry in data set [2] was “stimulates”. Also, the “long term potentiation (LTP)” value in data set [3] is listed as “capable of in vivo modulation”. Further, in data set [4], the acetylcholine release entry is “stimulates”.
